Target: T1, Nuclear factor erythroid 2-related factor 2 (Homo sapiens, UniProt Q16236)
T1 sequence (Q16236 whole entry): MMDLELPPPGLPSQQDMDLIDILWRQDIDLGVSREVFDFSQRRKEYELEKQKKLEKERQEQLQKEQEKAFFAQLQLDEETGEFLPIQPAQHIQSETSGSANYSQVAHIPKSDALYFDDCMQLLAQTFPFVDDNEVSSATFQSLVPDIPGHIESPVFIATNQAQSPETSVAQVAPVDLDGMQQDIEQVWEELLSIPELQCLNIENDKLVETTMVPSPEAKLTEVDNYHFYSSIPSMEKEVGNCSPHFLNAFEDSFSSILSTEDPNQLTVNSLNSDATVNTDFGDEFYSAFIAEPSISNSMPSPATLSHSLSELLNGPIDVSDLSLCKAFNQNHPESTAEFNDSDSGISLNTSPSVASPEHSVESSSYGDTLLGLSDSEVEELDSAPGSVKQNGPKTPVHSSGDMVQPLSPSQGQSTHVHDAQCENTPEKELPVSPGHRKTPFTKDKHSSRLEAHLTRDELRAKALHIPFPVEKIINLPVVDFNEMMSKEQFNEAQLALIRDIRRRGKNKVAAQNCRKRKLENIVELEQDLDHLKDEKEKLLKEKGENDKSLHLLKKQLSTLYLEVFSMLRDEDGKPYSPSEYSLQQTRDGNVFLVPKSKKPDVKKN
Experiment: Activation of ED-tagged Nrf2 in human U2OS cells co-expressing Keap1 assessed as induction of NRF2 translocation to nucleus after 6 hrs by beta-galactosidase based chemiluminescent assay
Type: cell-based

EC50 | SMILES
237 nM | COc1ccc(OS(=O)(=O)/C=C/c2ccccc2Cl)cc1
> 10000 nM | O=S(=O)(/C=C/c1ccccc1Cl)Nc1ccccc1

Source: ChEMBL document CHEMBL4304782, “Antioxidant, Anti-inflammatory, and Neuroprotective Effects of Novel Vinyl Sulfonate Compounds as Nrf2 Activator” (ACS Med Chem Lett, 2019)
